Where a SMILES comes first, the peptide text is derived from it. [ ]: non-standard residue; d: D form. The star is where a group is joined. NHCH2CH2OH = OCCN*; For = O=C*
Key:
[1] = H+/Na+ transport assay of bead-derived peptides (one-point); type: biochemical; parameters: key: relative activity; mean of two control wells = 1.00; conditions: bead-derived peptide solution, EYPC/EYPG LUVs;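 further: relative to parent gramicidin A activity set to 1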
Method in brief: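 One-point screen: peptide + pyranine-loaded LUVs, 30 min RT with vortexing, 96-well. Read-out is fluorescence intensity scaled as 100 × (Ix – I0)/(Imax – I0). Imax from Triton X-100, I0 from untreated vesicles, and the mean of the two control wells is set to 1.00.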

[2] = tested on: P388 mouse leukemia cells; conditions: 92 h
Method in brief: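 First, library peptide stocks are diluted 250-fold in RPMI1640 with 10% heat-inactivated FBS. Next, they are mixed with P388 cells to give 1 × 10^4 cells/mL and incubated 92 h at 37 °C, 5% CO2. Finally, viability (%) is scored by WST-1 absorbance at 415 nm.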

[3] = tested on: Streptococcus pyogenes SSI-9; test: Antibacterial activity assay of bead-derived peptides (three concentrations); type: cell-based; parameters: key: +++: inhibition by the 640-fold diluted peptide solution; ++: inhibition by the 160-fold diluted solution; +: inhibition by the 40-fold diluted solution; -: no inhibition; conditions: S. pyogenes, bead-derived peptide solution, three concentrations
Method in brief: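 Bead-derived library peptide stocks in DMSO were tested undiluted and after 4- and 16-fold DMSO dilution against S. pyogenes SSI-9 (2 × 10^5 CFU/well) in cation-adjusted Mueller Hinton Broth with 5% laked horse blood. After 18 h at 37 °C, wells were scored for precipitation of grown cells.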

Row | SMILES | H+/Na+ transport activity normalized against the value of 1 (1.00) [1] | cell viability/% [2] | antibacterial activity [3]
1 | CNC(=O)C[C@@H](NC(=O)[C@@H](NC(=O)[C@@H](CC(C)C)NC(=O)[C@H](C)NC(=O)[C@@H](CC(C)C)NC(=O)[C@H](C)NC(=O)CNC(=O)[C@@H](NC=O)C(C)C)C(C)C)C(=O)N[C@@H](Cc1c[nH]c2ccccc12)C(=O)N[C@H](CC(C)C)C(=O)N[C@@H](Cc1c[nH]c2ccccc12)C(=O)N[C@H](CC(C)C)C(=O)N[C@@H](Cc1c[nH]c2ccccc12)C(=O)N[C@H](CC(C)C)C(=O)N[C@@H](Cc1c[nH]c2ccccc12)C(=O)NCCO [compound 8061] (For-VGA[dL]A[dL]V[dD](NHMe)W[dL]W[dL]W[dL]W-NHCH2CH2OH) | 1.05 | 100.0% | -
2 | CC(C)C[C@@H](NC(=O)[C@H](C)NC(=O)CNC(=O)[C@@H](NC=O)C(C)C)C(=O)N[C@@H](C)C(=O)N[C@H](CC(C)C)C(=O)N[C@H](C(=O)N[C@@H](C(=O)N[C@@H](Cc1c[nH]c2ccccc12)C(=O)N[C@@H](C(=O)N[C@@H](Cc1c[nH]c2ccccc12)C(=O)N[C@H](CC(C)C)C(=O)N[C@@H](Cc1c[nH]c2ccccc12)C(=O)N[C@H](CC(C)C)C(=O)N[C@@H](Cc1c[nH]c2ccccc12)C(=O)NCCO)[C@H](C)O)C(C)C)C(C)C [compound 7067] (For-VGA[dL]A[dL]V[dV]W[dT]W[dL]W[dL]W-NHCH2CH2OH) | 1.02 | 100.0% | -
3 | CC(C)C[C@@H](NC(=O)[C@H](C)NC(=O)CNC(=O)[C@@H](NC=O)C(C)C)C(=O)N[C@@H](C)C(=O)N[C@H](CC(C)C)C(=O)N[C@H](C(=O)N[C@@H](C(=O)N[C@@H](Cc1c[nH]c2ccccc12)C(=O)N[C@@H](C(=O)N[C@@H](Cc1c[nH]c2ccccc12)C(=O)N[C@@H](C(=O)N[C@@H](Cc1c[nH]c2ccccc12)C(=O)N[C@H](CC(C)C)C(=O)N[C@@H](Cc1c[nH]c2ccccc12)C(=O)NCCO)C(C)C)C(C)C)[C@H](C)O)C(C)C [compound 7548] (For-VGA[dL]A[dL]V[dT]W[dV]W[dV]W[dL]W-NHCH2CH2OH) | 1.08 | 100.0% | -
4 | CC(C)C[C@@H](NC(=O)[C@H](C)NC(=O)CNC(=O)[C@@H](NC=O)C(C)C)C(=O)N[C@@H](C)C(=O)N[C@H](CC(C)C)C(=O)N[C@H](C(=O)N[C@H](CC(C)C)C(=O)N[C@@H](Cc1c[nH]c2ccccc12)C(=O)N[C@@H](C(=O)N[C@@H](Cc1c[nH]c2ccccc12)C(=O)N[C@H](CC(C)C)C(=O)N[C@@H](Cc1c[nH]c2ccccc12)C(=O)N[C@H](CC(C)C)C(=O)N[C@@H](Cc1c[nH]c2ccccc12)C(=O)NCCO)[C@H](C)O)C(C)C [compound 11408] (For-VGA[dL]A[dL]V[dL]W[dT]W[dL]W[dL]W-NHCH2CH2OH) | 1.30 | 57.5% | -
5 | CC(C)C[C@@H](NC(=O)[C@H](Cc1c[nH]c2ccccc12)NC(=O)[C@H](NC(=O)[C@@H](NC(=O)[C@H](NC(=O)[C@H](C)NC(=O)[C@H](NC(=O)[C@H](C)NC(=O)CNC(=O)[C@@H](NC=O)C(C)C)C(C)C)C(C)C)C(C)C)C(C)C)C(=O)N[C@@H](Cc1c[nH]c2ccccc12)C(=O)N[C@H](CC(C)C)C(=O)N[C@@H](Cc1c[nH]c2ccccc12)C(=O)N[C@@H](C(=O)N[C@@H](Cc1c[nH]c2ccccc12)C(=O)NCCO)[C@H](C)O [compound 5172] (For-VGA[dV]A[dV]V[dV]W[dL]W[dL]W[dT]W-NHCH2CH2OH) | 1.27 | 100.0% | ++
